Measured values published in US7956041B2, “Prophylactic and therapeutic agent of diabetes mellitus” (Ajinomoto Co., Inc., priority 2002, dated 2011).

Experiments:
[1] = system: glucose-loaded rats (Wistar rats); assay: Example I: blood glucose time course after oral glucose loading in rats; format: in vivo, rat; conditions: glucose 1 g/kg p.o., FIG. 2
Protocol: Wistar rats (age of 7 weeks; male) were divided into groups with matched body weights. After 17-hour starvation, glucose was orally given at 1 g/kg to the animals. Immediately after the administration, the inhibitor A of renal glucose reabsorption or the inhibitor B of renal glucose reabsorption (A at 30 mg/kg or 60 mg/kg; B at 30 mg/kg or 80 mg/kg) or glibenclamide (1 mg/kg or 2 mg/kg) or nateglinide (50 mg/kg or 80 mg/kg) was orally given. Additionally, a group on the combined use of both of an inhibitor of renal glucose reabsorption and a hypoglycemic agent was also prepared. A vehicle was orally given to a control group after glucose administration.
Blood glucose was measured in a time course.

Male Wistar rats [2] = assay: Test Example 1B: excretion action of urine sugar in rat; format: in vivo; conditions: oral administration, Dose 10 mg/kg, 24 hours
Protocol: Male Wistar rats aged 5 weeks (purchased from Charles River Japan, Inc.) were acclimatized in metabolic cages for one week, for use at this experiment. The test compounds suspended in olive oil were prepared into solutions to a dose of 5 ml per 1 kg rat body weight. After the rats were starved for 4 hours, the test compounds were orally given at 10, 30 and 100 mg/kg to the rats at 11 am. Immediately after dosing until 24 hours later, urine was collected. The volume of urine was measured. Then, urine glucose concentration was assayed by glucose oxidase method, to calculate the glucose excretion into urine per individual per day. As a positive control, 3-(5-benzo[b]furanyl)-2′-(6-o-methoxycarbonyl-β-D-glucopyranosyloxy)-6′-hydroxy-4′-methylpropiophenone [under a different name of 3-(benzo[b]furan-5-yl)-2′,6′-dihydroxy-4′-methylpropiophenone 2′-o-(6-o-methoxycarbonyl-β-D-glucopyranoside)] was used.

[3] = system: Type 2 diabetes model db/db mice; assay: Example IV: nateglinide load test after 25 days of dosing in db/db mice; format: in vivo, mouse; conditions: db/db mice after long-term inhibitor B 80 mg/kg twice daily; compared with vehicle-dosed and nateglinide-dosed groups
Protocol: Type 2 diabetes model db/db mice (age 6 weeks) were fed and kept with a feed twice daily over one hour starting 9 am and one hour starting 3 pm, for one week. Then, the mice were divided into groups with matched blood glucose levels and body weights. Subsequently, the inhibitor B of renal glucose reabsorption at 80 mg/kg or nateglinide at 80 mg/kg was orally given, immediately before feeding twice daily. Only a vehicle was orally given immediately before feeding twice daily to the animals of a control group. […] Blood glucose levels were measured before and after the administration, to examine whether or not the hypoglycemic action of nateglinide could be observed (nateglinide load test).

[4] = system: Renal brush border membrane; assay: Test Example 1A: inhibitory action of 14C-D-glucose uptake; format: biochemical; conditions: rat renal brush border membrane, 37° C., 30 minutes preincubation
Protocol: Test compounds were dissolved in 100 mM mannitol-10 mM HEPES/Tris, pH 7.4 to prepare solutions at various concentrations.
Renal brush border membrane was prepared from a rat kidney, to which a solution of a test compound was added for incubation at 37° C. for 30 minutes. Then, ^14C-D-glucose was added for incubation for one minute. A solution containing 1 mM phlorizin was used to terminate the glucose uptake reaction. The radioactivity ^14C of ^14C-D-glucose incorporated in the renal brush border membrane was counted with a liquid scintillation counter. The glucose uptake independent on sodium was reduced from the glucose uptake in a control group or a test group, to calculate the inhibition intensity.

Male Wistar rats [5] = assay: Test Example 1: evaluation of urine sugar excretion action in rats; format: in vivo, rat; conditions: 100 mg/kg p.o. in olive oil, urine collected 24 hours, per individual per day
Protocol: Male Wistar rats aged 5 weeks (purchased from Charles River Japan, Inc.) were acclimatized in metabolic cages for one week, for use at this experiment. The test compounds suspended in olive oil were prepared into a 20 mg/ml solution to a dose of 5 ml per 1 kg rat body weight.
After the rats were starved for 4 hours, the test compounds were orally given at 100 mg/kg to the rats at 11 am. Immediately after dosing until 24 hours later, urine was collected. The volume of urine was measured. Then, urine sugar concentration was assayed by glucose oxidase method, to calculate the glucose excretion into urine per individual per day.

`COC(=O)OC[C@H]1O[C@@H](Oc2cc(C)cc(O)c2C(=O)CCc2ccc3occc3c2)[C@H](O)[C@@H](O)[C@@H]1O` [3-(5-benzo[b]furanyl)-2′-(6-o-methoxycarbonyl-β-D-glucopyranosyloxy)-6′-hydroxy-4′-methylpropiophenone] was tested, and the “Blood glucose 180 minutes after glucose loading and thereafter” value ([1]; inhibitor B 30 mg/kg alone or with nateglinide 50 mg/kg p.o., vs vehicle) was “lower than that in the vehicle-dosed group”, the “Pattern of glycemic suppression at increased dose” value ([1]; nateglinide 80 mg/kg, inhibitor B 80 mg/kg) was “This pattern of glycemic suppression was also observed in the group with the increase of the dose” and the Excreted urine sugar (Male Wistar rats [2]) was 2 mg. For the same compound, the “Hyperglycemia 30 minutes after loading with glucose and nateglinide (in words)” value [3] was “nateglinide greatly suppressed hyperglycemia due to glucose loading”.
With `CSc1ccc(Cc2c(O[C@@H]3O[C@H](CO)[C@@H](O)[C@H](O)[C@H]3O)n[nH]c2C(F)(F)F)cc1` [Production Example 1-A, 4-((4-methylthiophenyl)methyl)-5-(trifluoromethyl)-1H-pyrazole-3-o-β-D-glucopyranoside] the Inhibition intensity ([4]; concentration of test compound 10 μM) was 84% (10 μM).
For `CCc1ccc(Cc2c(OC3OC(COC(=O)OC)C(O)C(O)C3O)nn(C3CCC3)c2C(F)(F)F)cc1` [Production Example 2, 1′-cyclobutyl-4′-[(4-ethylphenyl)methyl]-5′-trifluoromethyl-1H-pyrazole-3′-o-(6-carbomethoxy)-β-D-glucopyranoside], the Urine sugar excretion (Male Wistar rats [5]) was 656 mg.
With `CCc1ccc(Cc2c(O[C@@H]3O[C@H](C(=O)O)[C@@H](O)[C@H](O)[C@H]3O)n[nH]c2C(F)(F)F)cc1` [Production Example 2-A, 4-((4-ethylphenyl)methyl)-5-(trifluoromethyl)-1H-pyrazol-3-yl-β-D-glucopyranoside uronic acid] the Inhibition intensity ([4]; concentration of test compound 100 μM) was 30% (100 μM).
For `CCc1ccc(Cc2c(OC3OC(COC(=O)OC)C(O)C(O)C3O)nn(C3CCCC3)c2C(F)(F)F)cc1` [Production Example 4, 1′-cyclopentyl-4′-[(4-ethylphenyl)methyl]-5′-trifluoromethyl-1H-pyrazole-3′-o-(6-carbomethoxy)-β-D-glucopyranoside], the Urine sugar excretion (Male Wistar rats [5]) was 452 mg.
